# Source: patent US20240082296A1, “TREATMENT OF MUSCLE ATROPHY USING DEXTRAN SULFATE” (TX MEDIC AB, priority 2020, published 2024)
# Test system: patients with ALS
# Test: clinical observation of muscle function (ALSFRS-R) in ALS patients (Example 2)
# Format: in vivo, human
# Settings: during the five-week treatment period; 1 mg/kg s.c. weekly
# Experimental: A clinical trial in the form of a Phase IIa, single-center, open label, single-arm study where the safety, tolerability and possible efficacy of subcutaneously administered dextran sulfate was evaluated in patients with ALS of intermediate progression rate. The clinical trial was conducted at the Sahlgrenska University Hospital, Gothenburg, Sweden and was overseen and approved by the Ethics Committee of the University of Gothenburg and by the Swedish Medical Products Agency.
# Dextran sulfate (Tikomed AB, Viken, Sweden, WO 2016/076780) was administered at 1 mg/kg by […] subcutaneous injection once a week for five weeks to 13 human patients suffering from ALS.
# ALSFRS-R was assessed pre-treatment and weekly thereafter for the 5 treatment weeks and for the visits at the follow-up period.
# The biochemical evidence of reduced muscle degeneration supports the clinical observations of improved muscle function. For example, in the ALSFRS-R, functions mediated by cervical, trunk, lumbosacral, and respiratory muscles are each assessed by 3 items and scores in these categories show close agreement with objective measures of muscle strength.
substance,measurement,value
dextran sulfate,severe bulbar paresis in two patients,almost complete resolution
